Results on seven molecules are retold here after PubChem BioAssay AID1963986 (Molecular Pharmacology Branch, DTP, NCI, 2024).

Several values for one entry are separate records, joined by “and”; a condition that tells them apart may be missing. Equal values may be shown once. Some results are limits rather than exact numbers.

This test relates to 171881-019-R-J1-PDC tumor spheroid viability. Description: Anticancer human tumor 171881-019-R-J1-PDC patient-derived invasive breast carcinoma cell line growth inhibition [PI3K]. As to conditions: spheroids with HUVEC and MSC; for viability, T/C: stronger effect = lower value; for IC50: curve of compound. The text has this: Combinatorial screen of targeted agents with the PI3K inhibitors inavolisib, alpelisib, duvelisib, and copanlisib in multi-cell type tumor spheroids
A high-throughput screen of multi-cell type tumor spheroids was designed to identify active combinations of targeted small molecules and PI3K pathway inhibitors. Complex spheroids include a stromal component modeled by human endothelial cells (HUVEC) and fibroblasts modeled by human mesenchymal stem cells (MSCs). The concentration ranges selected for each drug and investigational agent were based upon clinically achievable concentrations if the clinical Cmax of the agent was known.
Compounds. The drugs and investigational agents: inavolisib (NSC800729), alpelisib (NSC765974), duvelisib (NSC772469), copanlisib (NSC816437), ipatasertib (NSC767898), afuresertib (NSC778305), talazoparib (NSC767125), sapanisertib (NSC764658), selumetinib (NSC741078), tovorafenib (DAY101, NSC766906), vemurafenib (NSC761431), ravoxertinib (NSC781343), sotorasib (NSC818433), MRTX1133 (NSC 836407), abemaciclib (NSC 768073), palbociclib (NSC758247), venetoclax (NSC 766270), SY5609 (NSC837396), enzalutamide (NSC755605), and darolutamide (NSC825331), were obtained from the National Cancer Institute (NCI) Developmental Therapeutics Program Chemical Repository. The FDA-approved anticancer drug set is available from the NCI Developmental Therapeutics Program. […] The stock solutions were prepared in dimethyl sulfoxide (DMSO, Sigma-Aldrich, St. Louis, MO, cat. D2650) at 800-fold the tested concentration and stored at -70 degrees C prior to their use. All drugs and investigational agents were tested over a range starting from a high concentration at or near the clinical Cmax and decreasing in half-log increments. If the clinical Cmax for an agent had not been determined, the highest concentration tested was 10 microM.
Cell Culture. All cells were maintained in an incubator at 37 degrees C and 5% CO2 with 95% humidity. The PDC lines were cultured according to standard operating procedures established by the NCI PDMR (https://pdmr.cancer.gov/sops/default.htm). All PDCs were thawed and cultured in Matrigel-coated flasks prepared with a working solution of 1X Ham's F-12 nutrient mix, without supplementation (Invitrogen, Waltham, MA, cat. 11765054), 100 U/mL penicillin-streptomycin (Invitrogen, cat. 15140122), and 2.5% Matrigel (Corning Inc., Corning, NY, cat. 354248) for the first three passages. The 354836-022-R-J1-PDC, 475296-252-R-J1-PDC, and 997726-040-R-J2-PDC lines were cultured in 6A media, which includes advanced DMEM/F-12 (Thermo Fisher Scientific, cat. 12634028), 10 mM HEPES (Thermo Fisher Scientific, cat. 15630080), 1X GlutaMAX supplement (Thermo Fisher Scientific, cat. 35050061), 0.1 mg/mL primocin (InvivoGen, San Diego, CA, cat. ant-pm-2), 10% defined fetal bovine serum, heat inactivated (HyClone Laboratories Inc., Logan, UT, cat. SH30070.03HI), 50% L-WRN conditioned media (ATCC, cat. CRL-3276), 1.25 mM N-Acetyl-L-cysteine (Sigma-Aldrich, cat. A9165), 10 mM nicotinamide (Sigma-Aldrich, cat. N0636), 1X B-27 supplement (Thermo Fisher Scientific, cat. 17504044), 1X N-2 supplement (Thermo Fisher Scientific, cat. 17502048), and 10 microM Y-27632 dihydrochloride (Tocris Bioscience, Bristol, United Kingdom, cat. 1254). The 624824-186-R-J2-PDC line was cultured in 6C/Colon 1B media, which includes all 6A media components plus 50 ng/mL human EGF recombinant protein (Thermo Fisher Scientific, cat. PHG0311). […]

For orientation: viability, T/C means the result in the treated group divided by that in the control group, in per cent. The IC50 is the concentration that gives 50% inhibition.
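Further: spheroids exposed to compound for 7 days before viability read.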

As for `C#Cc1c(F)ccc2cc(O)cc(-c3ncc4c(N5CC6CCC(C5)N6)nc(OCC56CCCN5CC(F)C6)nc4c3F)c12` (stereo not drawn), the IC50 is 425 nM [middle of 4 runs]. Besides, where the note is “compound 0.0316 µM”, the viability, T/C is 86.7% [middle of 4 runs]. Besides, the viability, T/C (compound 0.1 µM) is 70.6% [middle of 4 runs]. Where the note is “compound 0.316 µM”, the viability, T/C was 53.7% [middle of 4 runs]. The viability, T/C (compound 1 µM) was 40.4% [middle of 4 runs]. For the same molecule, the viability, T/C (compound 3.16 µM) was 35.4% [middle of 4 runs]. In addition, the viability, T/C (compound 10 µM) was 27.9% [middle of 4 runs].
On to `C=CC(=O)N1CCN(c2nc(=O)n(-c3c(C)ccnc3C(C)C)c3nc(-c4c(O)cccc4F)c(F)cc23)C(C)C1` (stereo not drawn), for which the IC50 was over 10000 nM. The viability, T/C (compound 0.0316 µM) was 95.3% [middle of 4 runs]. Further, the viability, T/C (compound 0.1 µM) was 84.4% [middle of 4 runs]. For the setting “compound 0.316 µM”, the viability, T/C was 92.5% [middle of 4 runs]. For the same molecule, the viability, T/C (compound 1 µM) was 94.6% [middle of 4 runs]. For the same molecule, the viability, T/C (compound 3.16 µM) was 91.7% [middle of 4 runs]. Moreover, the viability, T/C (compound 10 µM) is 56.1% [middle of 4 runs].
`CC(Cn1ccc(-c2ccc(C#N)c(Cl)c2)n1)NC(=O)c1cc(C(C)O)[nH]n1` (stereo not drawn): the IC50 was over 10000 nM. Further, the viability, T/C (compound 0.0316 µM) is 95.5% [middle of 4 runs]. Under “compound 0.1 µM”, the viability, T/C was 91.1% [middle of 4 runs]. Moreover, the viability, T/C (compound 0.316 µM) is 92.4% [middle of 4 runs]. Moreover, the viability, T/C (compound 1 µM) is 93.4% [middle of 4 runs]. The viability, T/C (compound 3.16 µM) was 87.9% [middle of 4 runs]. For the same molecule, the viability, T/C (compound 10 µM) was 64.3% [middle of 4 runs].
Regarding `CC1(C)CCC(Nc2ncc(C(F)(F)F)c(-c3c[nH]c4c(P(C)(C)=O)c(C#N)ccc34)n2)CN1` (stereo not drawn), the IC50 is 5.87 µM [middle of 4 runs]. For the same molecule, the viability, T/C (compound 0.0316 µM) is 72.4% [middle of 4 runs]. Also, the viability, T/C (compound 0.1 µM) is 70.7% [middle of 4 runs]. Further, the viability, T/C (compound 0.316 µM) is 78.8% [middle of 4 runs]. Further, the viability, T/C (compound 1 µM) was 82.7% [middle of 4 runs]. In addition, the viability, T/C (compound 3.16 µM) was 86.8% [middle of 4 runs]. Also, the viability, T/C (compound 10 µM) is 24% [middle of 4 runs].
On to `CNC(=O)c1ccc(N2C(=S)N(c3ccc(C#N)c(C(F)(F)F)c3)C(=O)C2(C)C)cc1F`, for which the IC50 was over 10000 nM. The viability, T/C (compound 0.0316 µM) was 96.3% [middle of 4 runs]. The viability, T/C (compound 0.1 µM) was 87.5% [middle of 4 runs]. The viability, T/C (compound 1 µM) was 90.5% [middle of 4 runs]. The viability, T/C (compound 3.16 µM) is 82.8% [middle of 4 runs]. Further, the viability, T/C (compound 10 µM) is 72% [middle of 4 runs].
Take `Cn1ncc(Cl)c1-c1cc(C(=O)NC(CN)Cc2cccc(F)c2)sc1Cl` (stereo not drawn): the 50% inhibitory concentration (IC50) is 121 nM and 127 nM and 155 nM. Also, for the setting “compound 0.0316 µM”, the viability, T/C was 80.2% [middle of 4 runs]. Also, under “compound 0.1 µM”, the viability, T/C was 55.6% [middle of 4 runs]. The viability, T/C (compound 0.316 µM) was 34% [middle of 4 runs]. The viability, T/C (compound 1 µM) is 21.5% [middle of 4 runs]. Further, where the note is “compound 3.16 µM”, the viability, T/C is 13.1% [middle of 4 runs]. In addition, the viability, T/C (compound 10 µM) is 4.48% [middle of 4 runs].
Consider `Cn1nccc1Nc1nccc(-c2ccn(C(CO)c3ccc(Cl)c(F)c3)c(=O)c2)n1` (stereo not drawn), for which the IC50 is 502 nM [middle of 4 runs]. Also, the viability, T/C (compound 0.0316 µM) was 93.8% [middle of 4 runs]. In addition, under “compound 0.1 µM”, the viability, T/C was 84.3% [middle of 4 runs]. Further, where the note is “compound 0.316 µM”, the viability, T/C was 57.5% [middle of 4 runs]. Also, the viability, T/C (compound 1 µM) is 37.7% [middle of 4 runs]. Besides, the viability, T/C (compound 3.16 µM) was 26.1% [middle of 4 runs]. The viability, T/C (compound 10 µM) was 20.1% and 21.8% and 21.4% (2×).
